Results taken from patent US6642216B2, “Isoprenoid pathway inhibitors for stimulating bone growth” (ZymoGenetics Corporation, priority 1996, dated 2003).

What was measured:
BMP-2 promoter = assay: ABA assay: BMP-2 promoter-luciferase reporter in 2T3-BMP-2-LUC osteoblast cells; type: cell-based, mouse
[1] = tested on: ICR Swiss white mice calvaria; assay: In vivo murine calvarial bone growth assay; design: species or system mouse
Experimental: Male ICR Swiss white mice, aged 4-6 weeks and weighing 13-26 gm, are employed, using 4-5 mice per group. The calvarial bone growth assay is performed as described in PCT application WO 95/24211, incorporated by reference. Briefly, the test compound or appropriate control vehicle is injected into the subcutaneous tissue over the right calvaria of normal mice. Typically, the control vehicle is the vehicle in which the compound was solubilized, and is PBS containing 5% DMSO or is PBS containing Tween (2 μl/10 ml). The animals are sacrificed on day 14 and bone growth measured by histomorphometry. Bone samples for quantitation are cleaned from adjacent tissues and fixed in 10% buffered formalin for 24-48 hours, decalcified in 14% EDTA for 1-3 weeks, processed through graded alcohols; and embedded in paraffin wax. Three to five μm sections of the calvaria are prepared, and representative sections are selected for histomorphometric assessment of the effects on bone formation and bone resorption. Sections are measured by using a camera lucida attachment to trace directly the microscopic image onto a digitizing plate. Bone changes are measured on sections cut 200 μm apart, over 4 adjacent 1×1 mm fields on both the injected and noninjected sides of the calvaria. New bone is identified by its characteristic woven structure, and osteoclasts and osteoblasts are identified by their distinctive morphology. Histomorphometry software (OsteoMeasure, Osteometrix, Inc., Atlanta) is used to process digitizer input to determine cell counts and measure areas or perimeters.
The results are reported as a measurement of total bone area (and % increase in area over vehicle control), as shown below.

neonatal mouse calvaria = assay: Neonatal mouse calvaria assay (in vitro bone formation); type: cell-based; design: Osteoblast Number, % increase over vehicle control / New Bone Area, % increase over vehicle control: concentration or dose not given beside the values
Summary of the method: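 Frontal and parietal bones from 4-day-old ICR Swiss mice cultured ex vivo, then 3 μm sections histomorphometrically assessed. New bone area measured in one field (10× objective) in 3 sections per bone, 4 bones per group, expressed as mm^2×10^−3; osteoblasts lining bone counted at 20×, per mm bone surface.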

[2] = tested on: osteoprogenitor cells cloned from bone marrow stroma; conditions: Cui et al. 1996; cited from earlier work
chickens = conditions: Cui et al. 1996; cited from earlier work
[3] = Experiment 3, 8.88178E μg/ml (0.002193 μM lovastatin, 0.002087 μM fluvastatin)

Structure (SMILES): CC[C@H](C)C(=O)O[C@H]1C[C@@H](C)C=C2C=C[C@H](C)[C@H](CC[C@@H]3C[C@@H](O)CC(=O)O3)[C@H]21 [Lovastatin, lovastatin]
- dose-dependent stimulatory effect in the ABA assay (BMP-2 promoter): dose-dependent stimulatory effect
- % 59-0008 Response (BMP-2 promoter; Experiment 1, 0.195312 μg/ml): 22.840%
- Fold increase over negative control (BMP-2 promoter; Experiment 1, 0.195312 μg/ml): 2.011 fold
- % 59-0008 Response (BMP-2 promoter; Experiment 1, 0.390625 μg/ml): 27.830%
- Fold increase over negative control (BMP-2 promoter; Experiment 1, 0.390625 μg/ml): 2.232 fold
- % 59-0008 Response (BMP-2 promoter; Experiment 1, 0.78125 μg/ml): 35.220%
- Fold increase over negative control (BMP-2 promoter; Experiment 1, 0.78125 μg/ml): 2.559 fold
- % 59-0008 Response (BMP-2 promoter; Experiment 1, 1.5625 μg/ml): 67.080%
- Fold increase over negative control (BMP-2 promoter; Experiment 1, 1.5625 μg/ml): 3.970 fold
- % 59-0008 Response (BMP-2 promoter; Experiment 1, 3.125 μg/ml): 111.730%
- Fold increase over negative control (BMP-2 promoter; Experiment 1, 3.125 μg/ml): 5.947 fold
- % 59-0008 Response (BMP-2 promoter; Experiment 1, 6.25 μg/ml): 126.230%
- Fold increase over negative control (BMP-2 promoter; Experiment 1, 6.25 μg/ml): 6.589 fold
- % 59-0008 Response (BMP-2 promoter; Experiment 1, 12.5 μg/ml): 153.790%
- Fold increase over negative control (BMP-2 promoter; Experiment 1, 12.5 μg/ml): 7.809 fold
- % 59-0008 Response (BMP-2 promoter; Experiment 1, 25 μg/ml): 144.730%
- Fold increase over negative control (BMP-2 promoter; Experiment 1, 25 μg/ml): 7.408 fold
- % 59-0008 Response (BMP-2 promoter; Experiment 1, 50 μg/ml): −22.510%
- Fold increase over negative control (BMP-2 promoter; Experiment 1, 50 μg/ml): 0.003 fold
- % 59-0008 Response (BMP-2 promoter; Experiment 1, 200 μg/ml): −22.650%
- Fold increase over negative control (BMP-2 promoter; Experiment 1, 200 μg/ml): −0.003 fold
- % 59-0008 Response (BMP-2 promoter; Experiment 3, 0.002842 μg/ml): 1.050%
- Fold increase over negative control (BMP-2 promoter; Experiment 3, 0.002842 μg/ml): 1.032 fold
- % 59-0008 Response (BMP-2 promoter; Experiment 3, 0.009094 μg/ml): 2.720%
- Fold increase over negative control (BMP-2 promoter; Experiment 3, 0.009094 μg/ml): 1.083 fold
- % 59-0008 Response (BMP-2 promoter; Experiment 3, 0.029103 μg/ml): 1.550%
- Fold increase over negative control (BMP-2 promoter; Experiment 3, 0.029103 μg/ml): 1.048 fold
- % 59-0008 Response (BMP-2 promoter; Experiment 3, 0.093132 μg/ml): 3.210%
- Fold increase over negative control (BMP-2 promoter; Experiment 3, 0.093132 μg/ml): 1.099 fold
- % 59-0008 Response (BMP-2 promoter; Experiment 3, 0.298023 μg/ml): 10.860%
- Fold increase over negative control (BMP-2 promoter; Experiment 3, 0.298023 μg/ml): 1.333 fold
- % 59-0008 Response (BMP-2 promoter; Experiment 3, 0.953674 μg/ml): 35.300%
- Fold increase over negative control (BMP-2 promoter; Experiment 3, 0.953674 μg/ml): 2.083 fold
- % 59-0008 Response (BMP-2 promoter; Experiment 3, 3.051757 μg/ml): 103.260%
- Fold increase over negative control (BMP-2 promoter; Experiment 3, 3.051757 μg/ml): 4.169 fold
- % 59-0008 Response (BMP-2 promoter; Experiment 3, 9.765625 μg/ml): 148.030%
- Fold increase over negative control (BMP-2 promoter; Experiment 3, 9.765625 μg/ml): 5.543 fold
- % 59-0008 Response (BMP-2 promoter; Experiment 3, 31.25 μg/ml): 166.770%
- Fold increase over negative control (BMP-2 promoter; Experiment 3, 31.25 μg/ml): 6.118 fold
- % 59-0008 Response (BMP-2 promoter; [3]): 0.620%
- Fold increase over negative control (BMP-2 promoter; [3]): 1.019 fold
- % increase in total bone area over vehicle control ([1]; 0.1 mg/kg/day): 0%
- Total Bone Area ([1]; 0.1 mg/kg/day): 162 μm^2
- % increase in total bone area over vehicle control ([1]; 1 mg/kg/day): 41%
- Total Bone Area ([1]; 1 mg/kg/day): 237 μm^2
- % increase in total bone area over vehicle control ([1]; 5 mg/kg/day): 40%
- Total Bone Area ([1]; 5 mg/kg/day): 235 μm^2
- % increase in total bone area over vehicle control ([1]; 10 mg/kg/day): 42%
- Total Bone Area ([1]; 10 mg/kg/day): 239 μm^2
- bone stimulatory effect compared with 12.5 μg/kg/day bFGF ([1]; 10 mg/kg/day): comparable
- effect on total bone area ([1]; varying doses): dose-dependent increase in total bone area
- inducing bone formation, compared with BMP-2 and bFGF (neonatal mouse calvaria): as good as, or better than
- New Bone Area (neonatal mouse calvaria; Experiment 3, 3 days): 8.2 mm^2 × 10^−3
- New Bone Area, % increase over vehicle control (neonatal mouse calvaria; Experiment 3, 3 days): 182%
- Osteoblast Number (neonatal mouse calvaria; Experiment 3, 3 days): 128 Obs/field
- Osteoblast Number, % increase over vehicle control (neonatal mouse calvaria; Experiment 3, 3 days): 152%
- triglyceride vesicles accumulated on dexamethasone treatment [2]: diminished triglyceride vesicles
- bone loss in the femoral head as a result of dexamethasone treatment (chickens): improved
